Experimental data reported in ChEMBL document CHEMBL6083234, “Discovery of novel 1,4-dicarbonylthiosemicarbazides as DNA gyrase inhibitors for the treatment of MRSA infection” (Eur J Med Chem, 2024).
pIC50: −log10 of the molar value. ≈ marks a conversion by molar mass, not a printed value.

How the values were obtained:
[1] = target: DNA gyrase (Staphylococcus aureus, UniProt P0A0K8+P20831); test: Inhibition of Staphylococcus aureus DNA gyrase using supercoiled pBR322 as substrate preincubated for 1 hrs followed by proteinase K addition and measured after 30 mins by agarose gel electrophoresis; type: protein-complex assay
[2] = test system: Staphylococcus aureus; test: Antibacterial activity against Staphylococcus aureus clinical isolates incubated for 18 hrs by Mueller-Hinton broth based assay; type: functional
[3] = target: Topoisomerase IV (Staphylococcus aureus, UniProt P0C1S7+P0C1U9); test: Inhibition of Staphylococcus aureus DNA topoisomerase 4 using linear pBR322 as substrate preincubated for 10 mins followed by ATP addition and measured after 1 hrs ATP hydrolysis assay; type: protein-complex assay

pIC50 [1]: < 4.30
MIC [2]: 8 mg/L (≈ 23.6 µM)
pIC50 [3]: < 5.00
Compound: O=C(NC(=S)NNC(=O)c1cc2ccccc2[nH]1)c1ccccc1
